Publication PMC6731595, “The anti-parasitic agent suramin and several of its analogues are inhibitors of the DNA binding protein Mcm10” (Open Biology, 2019)
Where a name gives a salt, the structure may show the parent alone.

Tests used:
[1] = molecular target: T1, full-length Xenopus Mcm10 (xMcm10-FL) (Xenopus laevis, UniProt Q5EAW4); experiment: Fluorescence polarization competition assay, displacement of 5′-6FAM ssDNA probe from xMcm10-FL; format: binding; conditions: for Ki: averages of n = 2, xMcm10-FL 2 μM; for activity at xMcm10-FL (result in words): FP displacement curves, figure S3
T1 construct: The full-length xMcm10 was expressed with MBP fused onto the N-terminus and 6x-His tag attached to the C-terminus; 6xHis (C); made in house; host or cells: E. coli BL21(DE3), as for the ID constructs ('as described above')
T1 sequence (Q5EAW4 1-860): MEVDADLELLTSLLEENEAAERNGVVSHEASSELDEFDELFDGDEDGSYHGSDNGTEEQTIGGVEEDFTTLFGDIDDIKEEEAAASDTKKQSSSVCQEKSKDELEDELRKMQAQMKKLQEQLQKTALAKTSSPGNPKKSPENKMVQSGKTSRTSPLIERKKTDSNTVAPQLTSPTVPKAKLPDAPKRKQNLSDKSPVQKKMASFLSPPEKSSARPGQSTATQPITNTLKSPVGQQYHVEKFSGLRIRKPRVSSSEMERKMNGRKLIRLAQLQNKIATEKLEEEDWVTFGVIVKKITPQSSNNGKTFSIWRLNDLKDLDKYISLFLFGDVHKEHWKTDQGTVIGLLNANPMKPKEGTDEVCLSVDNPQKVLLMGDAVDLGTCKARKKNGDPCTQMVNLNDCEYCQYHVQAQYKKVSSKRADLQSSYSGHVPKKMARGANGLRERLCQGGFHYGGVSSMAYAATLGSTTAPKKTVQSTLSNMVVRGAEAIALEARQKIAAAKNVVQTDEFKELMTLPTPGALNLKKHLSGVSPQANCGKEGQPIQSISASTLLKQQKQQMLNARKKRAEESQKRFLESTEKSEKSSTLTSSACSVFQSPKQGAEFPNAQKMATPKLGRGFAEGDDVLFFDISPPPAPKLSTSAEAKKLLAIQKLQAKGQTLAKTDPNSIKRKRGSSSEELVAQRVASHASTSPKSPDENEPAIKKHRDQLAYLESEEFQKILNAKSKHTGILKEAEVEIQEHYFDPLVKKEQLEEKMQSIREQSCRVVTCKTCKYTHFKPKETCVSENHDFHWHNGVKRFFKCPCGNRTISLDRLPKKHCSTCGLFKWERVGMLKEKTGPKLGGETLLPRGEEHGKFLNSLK
Experimental: A fluorescence polarization (FP) HTS assay was established to detect inhibitors of the binding of the 5′-6FAM 10-mer oligo probe to Mcm10. Test compounds dissolved in DMSO were added to 384-well plates (Corning 4514) using an Echo 550 acoustic dispenser (final DMSO 0.1%) to achieve a final single point screening concentration of 10 µM. Then 10 µl of 2× Xenopus internal domain Mcm10 (xMcm10-ID, final concentration 2 µM) in binding buffer (20 mM Tris HCl, 100 mM NaCl, 5% glycerol, and 0.01% triton, pH 7.5) was added using the Combi nL Multidrop dispenser. Finally, 10 µl of 2× 5′-6FAM DNA (final 12.5 nM) in binding buffer was added using the Multidrop. DMSO (0.1%, high signal) and probe only (low signal) controls were included on every plate. Plates were mixed for 2 min, incubated for 60 min at RT in the dark, and read on a CLARIOstar multimode plate reader (excitation: 482-16, emission: 530-40, dichroic filter: LP504).
The LOPAC pilot screen identified the sulfhydryl reagent 4-chloromercuribenzoic acid as an inhibitor in the fluorescence polarization (FP) assay. As there was no known Mcm10 inhibitor, 4-chloromercuribenzoic acid (30 μM) was used as a positive control on initial screening plates. Following the discovery of suramin as a Mcm10 inhibitor, suramin (7 μM) was used as a positive control on subsequent screening plates. To confirm activity, screening hits were tested in dose response experiments (8 concentrations in duplicate) using xMcm10-ID. Similar dose response experiments were conducted with suramin and its analogs to confirm activity for hMcm10-ID (1 μM) and xMcm10-FL (2 μM) and to determine selectivity relative to RPA70AB (0.4 μM). Saturation experiments for each protein were conducted using increasing concentrations of protein with a fixed probe concentration (12.5 nM). FP was measured in mP units, and ∆mP values for each well were calculated as the difference between the measured mP and the average of the “probe only” controls. […] The parallel and perpendicular mP values were also used to calculate total fluorescence intensity (TFI) determined by the sum of parallel mP + (2 x perpendicular mP). TFI was used to detect fluorescence interference by compounds [1]. […] IC50 values were calculated using the four parameter logistic equation in Prism 6.0 (GraphPad). Ki values were obtained using an online Ki calculator according to the equations of Nikolovska-Coleska (http://sw16.im.med.umich.edu/soft-ware/calc_ki/). KD values were calculated using the one site or two site binding equations in Prism 6.0 (GraphPad).

hMcm10-ID = molecular target: T2, hMcm10-ID (Homo sapiens, UniProt Q7L590); experiment: ABA injection SPR competition experiment with NF023 on hMcm10-ID; format: binding; conditions: competitor at 1× KD with NF023 at 10× KD (50 μM)
T2 construct: hMcm10-ID (residues 237 to 436) were expressed in E. coli strain BL21(DE3); 6xHis (HRV 3C site) (N, cleaved yes); made in house; host or cells: E. coli BL21(DE3)
T2 sequence (Q7L590 237-436): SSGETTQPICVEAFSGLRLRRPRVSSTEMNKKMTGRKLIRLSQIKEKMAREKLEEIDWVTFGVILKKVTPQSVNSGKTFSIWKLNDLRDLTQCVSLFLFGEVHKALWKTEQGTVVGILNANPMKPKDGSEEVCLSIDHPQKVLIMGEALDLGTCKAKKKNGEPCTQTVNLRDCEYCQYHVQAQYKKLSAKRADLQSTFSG
Experimental: To explore this possibility, competition-based SPR experiments were conducted using the ABA injection method to determine if the slow binder iso-PPADS competes with the fast kinetic compound NF023 (figure 4). ABA injection allows solution A (NF023 at 10× its KD) to be injected over the surface with solution B (NF023 + competitor at 1× KD) in the same cycle. Competitive binding should result in little or no change in binding response between the A and B injections, whereas non-competitive binders are expected to produce an additive binding response.
For ABA competition SPR experiments, the CM5 chip surface was prepared as described in Materials and Methods. Solution A was prepared with 50 μM NF023 in running buffer while solution B was prepared with the competitor near its KD value (NF023 = 5 μM, suramin = 0.5 μM, and iso-PPADS = 30 μM) ± 50 μM NF023 in running buffer. Data were collected at a rate of 40 Hz and analyzed with the Biacore S200 Evaluation Software. For these experiments, hMcm10-ID was immobilized to the chip surface and NF023 at a concentration 10-fold higher than its KD. A running buffer control was performed to establish the baseline of the experiment. When buffer and NF023 were injected as solution B, there was a small decrease in RU due to slight buffer mismatch effects (Figure 5a). […] NF023, suramin, and iso-PPADS were chosen as competitors to be tested at concentrations equal to their respective KD values as determined by SPR.

higher affinity for hMcm10-ID over xMcm10-FL ([1]; FP Ki comparison) | Ki [1] [µM] | activity at xMcm10-FL (result in words) [1] | Structure (SMILES) | competition with NF023 for binding to hMcm10-ID (ABA SPR) (hMcm10-ID)
up to 20 fold | 3.4 |  | O=C(Nc1cccc(C(=O)Nc2cc(C(=O)Nc3ccc(S(=O)(=O)O)c4cc(S(=O)(=O)O)cc(S(=O)(=O)O)c34)ccc2F)c1)Nc1cccc(C(=O)Nc2cc(C(=O)Nc3ccc(S(=O)(=O)O)c4cc(S(=O)(=O)O)cc(S(=O)(=O)O)c34)ccc2F)c1 [NF157] | 
 | > 1000 | inactivity | Cc1nc(/N=N/c2ccc(S(=O)(=O)O)cc2S(=O)(=O)O)c(COP(=O)(O)O)c(C=O)c1O [PPADS, pyridoxalphosphate-6-azophenyl-2’, 4’-disulfonic acid tetrasodium salt] | 
 | 4.4 |  | O=C(Nc1cccc(C(=O)Nc2ccc(S(=O)(=O)O)c3cc(S(=O)(=O)O)cc(S(=O)(=O)O)c23)c1)Nc1cccc(C(=O)Nc2ccc(S(=O)(=O)O)c3cc(S(=O)(=O)O)cc(S(=O)(=O)O)c23)c1 [NF023] | consistent with a competitive interaction
 | > 1000 | inactivity | Cc1nc(/N=N/c2cc(S(=O)(=O)O)ccc2S(=O)(=O)O)c(COP(=O)(O)O)c(C=O)c1O [iso-PPADS, pyridoxalphosphate-6-azophenyl-2’, 5’-disulfonic acid tetrasodium salt] | neither compound showed additive binding

Structure (SMILES) | higher affinity for hMcm10-ID over xMcm10-FL ([1]; FP Ki comparison) | Ki [1] [µM] | activity at xMcm10-FL (result in words) [1] | competition with NF023 for binding to hMcm10-ID (ABA SPR) (hMcm10-ID)
Cc1ccc(C(=O)Nc2ccc(S(=O)(=O)O)c3cc(S(=O)(=O)O)cc(S(=O)(=O)O)c23)cc1NC(=O)c1cccc(NC(=O)Nc2cccc(C(=O)Nc3cc(C(=O)Nc4ccc(S(=O)(=O)O)c5cc(S(=O)(=O)O)cc(S(=O)(=O)O)c45)ccc3C)c2)c1 [suramin, suramin sodium salt] |  | 3.4 |  | neither compound showed additive binding
